From patent US20260272960A1, “[…] COMPOUNDS, PREPARATION METHOD AND USE THEREOF” (HC SYNTHETIC PHARMACEUTICAL CO., LTD., priority 2022, published 2026)
Values after ≈ are worked out from the molar mass of the structure shown. Where two headings read alike, the source gives them in different places.

Assays:
[1] = Solubility test in water, methanol and isopropanol; assay type: physicochemical
Protocol: The solubility in water, methanol, and isopropanol of the compounds of the present disclosure and the comparative compounds were measured separately.

[2] = Accelerated stability test; assay type: physicochemical; settings: 40° C.±2° C., relative humidity 75%+5%
Protocol: The compound of the present disclosure was placed at a temperature of 40° C.±2° C. and a relative humidity of 75%+5% for 6 months, and samples were taken to determine for the descriptions, related substances, and contents.

[3] = tested on: isolated ileal smooth muscle of guinea pigs; experiment: Effect on muscle tone of isolated ileal smooth muscle of guinea pigs (no histamine added); set-up: species or system guinea pig; settings: 5 minutes after adding the drug, X ± s, n = 8
Protocol: The guinea pig was knocked unconscious with a wooden stick, and the abdomen was immediately dissected to separate the ileum about 15 cm in length. The contents of the intestinal segment were flushed with Tyrode's solution and placed in Tyrode's solution at a constant temperature of 37° C. for later use, and oxygen was supplied simultaneously. The experimental intestinal tract (1 cm in length) was cut and placed into 20 ml of Tyrode's solution at a constant temperature of 37° C. with a continuous oxygen supply. One end of the intestine was fixed on the ventilation hook and the other end was connected to the muscle tone transducer and led to the computer interface. The muscle tone value of the ileal smooth muscle was recorded with a BL system. The experiment was carried out after the intestinal segment contraction became stable. […] The operation was repeated 8 times. The antispasmodic percentage was calculated according to the following formula. [formula]

[4] = tested on: histamine-induced asthma in guinea pigs; experiment: Antiasthmatic effect on histamine-induced asthma in guinea pigs (latency period); assay type: in vivo, guinea pig; settings: 1 mg/kg oral gavage, sixty minutes after administration; no asthma within 8 minutes counted as 8 minutes; X ± s, n = 5
Protocol: The guinea pigs were placed in a polymethyl methacrylate bell jar and a histamine hydrochloride solution was sprayed ultrasonically (0.8 mg/mL) for 40 seconds. The time point at which the guinea pigs developed asthma was recorded. The time of convulsion and fall was taken as the latency period. Guinea pigs with a latency period exceeding 180 seconds were not selected. […] The guinea pigs were administered by oral gavage at a dose of 2 mL/kg·bw. Sixty minutes after the administration, the guinea pigs were placed in bell jars, and histamine hydrochloride solution was sprayed under the same conditions as in the previous selection. The latency period for the onset of asthma was recorded. […] The results were processed statistically.

[5] = isopropanol, organic solvent or mixture, isopropanol, read-out: Solubility, Isopropanol
[6] = methanol, organic solvent or mixture, methanol, read-out: Solubility, Methanol
[7] = water, read-out: Solubility, Water

O=C1Cc2ccccc2C(=C2CCN(COP(=O)(O)O)CC2)c2ccsc21 [Compound III-1]
solubility [1, 5]: 24 mg/mL (≈ 59.2 mM)
solubility [1, 6]: 35 mg/mL (≈ 86.3 mM)

O=C1Cc2ccccc2C(=C2CCN(CCOP(=O)(O)O)CC2)c2ccsc21 [Compound III-2]
solubility ([1]; isopropanol, organic solvent or mixture, read-out: Solubility, Isopropanol): 24 mg/mL (≈ 57.2 mM)

O=C1Cc2ccccc2C(=C2CCN(CCCOP(=O)(O)O)CC2)c2ccsc21 [Compound III-3]
solubility [1, 6]: 35 mg/mL (≈ 80.7 mM)

O=C1Cc2ccccc2C(=C2CCN(CCCCOP(=O)(O)O)CC2)c2ccsc21 [Compound III-4]
solubility [1, 5]: 24 mg/mL (≈ 53.6 mM)
solubility [1, 6]: 35 mg/mL (≈ 78.2 mM)

O=C1Cc2ccccc2C(=C2CCN(CCCOCOP(=O)(O)O)CC2)c2ccsc21 [Compound III-7]
solubility [1, 5]: 24 mg/mL (≈ 51.8 mM)
solubility [1, 6]: 38 mg/mL (≈ 82 mM)

O=C1Cc2ccccc2C(=C2CCN(CCCCCOCOP(=O)(O)O)CC2)c2ccsc21 [Compound III-9]
solubility [1, 5]: 24 mg/mL (≈ 48.8 mM)
solubility [1, 6]: 38 mg/mL (≈ 77.3 mM)

O=C1Cc2ccccc2C(=C2CCN(COP(=O)([O-])[O-])CC2)c2ccsc21.[Na+].[Na+] [Compound IV-1]
Content ([2]; Month 1): 99.7%
Content ([2]; Month 3): 99.6%
solubility [1, 5]: 1 mg/mL
solubility [1, 6]: 35 mg/mL
solubility [1, 7]: 488 mg/mL

O=C1Cc2ccccc2C(=C2CCN(CCOP(=O)([O-])[O-])CC2)c2ccsc21.[K+].[K+] [Compound IV-2]
Content ([2]; Month 1): 99.7%
Content ([2]; Month 2): 99.7%
Content ([2]; Month 6): 99.6%

O=C1Cc2ccccc2C(=C2CCN(CCCOP(=O)(O)O)CC2)c2ccsc21 [Compound IV-3]
solubility [1, 6]: 38 mg/mL (≈ 87.7 mM)
solubility [1, 7]: 404 mg/mL (≈ 932 mM)

O=C1Cc2ccccc2C(=C2CCN(CCCCOP(=O)([O-])[O-])CC2)c2ccsc21.[Na+].[Na+] [Compound IV-4]
Content ([2]; Month 1): 99.7%
Content ([2]; Month 3): 99.6%
solubility [1, 5]: 1 mg/mL
solubility [1, 6]: 35 mg/mL
solubility [1, 7]: 476 mg/mL

O=C1Cc2ccccc2C(=C2CCN(CCCCCOP(=O)([O-])[O-])CC2)c2ccsc21.[Na+].[Na+] [Compound IV-5]
solubility [1, 5]: 1 mg/mL
solubility [1, 7]: 478 mg/mL

O=C1Cc2ccccc2C(=C2CCN(CCOCOP(=O)(O)O)CC2)c2ccsc21 [Compound IV-6]
Content ([2]; Month 3): 99.6%

O=C1Cc2ccccc2C(=C2CCN(CCCCOCOP(=O)([O-])[O-])CC2)c2ccsc21.[Na+].[Na+] [Compound IV-8]
Content ([2]; Month 1): 99.7%
Content ([2]; Month 2): 99.7%
Content ([2]; Month 6): 99.6%

O=C1Cc2ccccc2C(=C2CCN(CCCCCOCOP(=O)([O-])[O-])CC2)c2ccsc21.[Na+].[Na+] [Compound IV-9]
solubility [1, 5]: 2 mg/mL
solubility [1, 6]: 35 mg/mL
solubility [1, 7]: 473 mg/mL

OCCCCN1CCC(=C2c3ccc(Cl)cc3CCc3cccnc32)CC1 [Hydroxybutyl desloratadine, hydroxybutyl desloratadine, reference compound]
solubility [1, 5]: 28 mg/mL (≈ 73.1 mM)
solubility [1, 6]: 22 mg/mL (≈ 57.5 mM)

OCCN1CCC(=C2c3ccc(Cl)cc3CCc3cccnc32)CC1 [Hydroxyethyl desloratadine, hydroxyethyl desloratadine, reference compound]
solubility [1, 5]: 21 mg/mL (≈ 59.2 mM)
solubility [1, 6]: 27 mg/mL (≈ 76.1 mM)

OCCCCCCN1CCC(=C2c3ccc(Cl)cc3CCc3cccnc32)CC1 [Hydroxyhexyl desloratadine, hydroxyhexyl desloratadine, reference compound]
solubility [1, 5]: 32 mg/mL (≈ 77.9 mM)
solubility [1, 6]: 15 mg/mL (≈ 36.5 mM)

OCCCCCN1CCC(=C2c3ccc(Cl)cc3CCc3cccnc32)CC1 [Hydroxypentyl desloratadine, hydroxypentyl desloratadine, reference compound]
solubility [1, 5]: 29 mg/mL (≈ 73.1 mM)
solubility [1, 6]: 19 mg/mL (≈ 47.9 mM)

OCCCN1CCC(=C2c3ccc(Cl)cc3CCc3cccnc32)CC1 [Hydroxypropyl desloratadine, hydroxypropyl desloratadine, reference compound]
solubility [1, 5]: 26 mg/mL (≈ 70.5 mM)
solubility [1, 6]: 24 mg/mL (≈ 65.1 mM)

CN1CCC(=C2c3ccccc3CC(=O)c3sccc32)CC1 [Ketotifen, ketotifen]
Smooth muscle tone (g) After administration [3]: 1.30 ± 0.30 g
Antispasmodic percentage (%) ([3]; no histamine): 23.53 ± 10.10%
Post-administration latency period [4]: 263.11 ± 54.90 s
solubility [1, 5]: 20 mg/mL (≈ 64.6 mM)
solubility [1, 6]: 30 mg/mL (≈ 97 mM)

Cc1cncc(CN2CCC(=C3c4ccccc4CC(=O)c4sccc43)CC2)c1 [Rupatifen, rupatifen, reference compound]
solubility [1, 5]: 20 mg/mL (≈ 49.9 mM)
solubility [1, 6]: 30 mg/mL (≈ 74.9 mM)
